From US11602532B2, “Nanoparticle formulations of decoquinate in the form of solid solution” (CAS Lamvac (Guangzhou) Biomedical Technology Co., Ltd., priority 2019, dated 2023) come the findings set out here.

In one data set the test system is pfB47D6 (PS). The data set is described as follows: Malaria SYBR fluorescence (MSF) blood stage assay, pfB47D6. As to conditions: Plasmodium falciparum, read-out: IC50 (nM) Mean. The data set is classed as cell-based. The method, then: (§1) Fifteen different preparations of decoquinate solid solutions as described in Examples were tested in cell culture assays to assess the growth inhibition of blood stage Plasmodium in freshly isolated human blood cells and the growth inhibition of Plasmodium in the liver stage in cell culture of HepG2 cells. The malaria SYBR fluorescence (MSF) assay was performed to detect the parasite DNA of Plasmodium falciparum in late-ring or early-trophozoite stages. […] The intensity of fluorescence generated by the binding of SYBR Green I dye to Plasmodium DNA is quantitatively proportional to the number of parasites. The detailed description of method refers to SOP of the inventors.
(§2) Chloroquine and artemisinin were used as positive controls in the same experiments.

A further data set concerns pfB74F6 (PS). Put plainly: Malaria SYBR fluorescence (MSF) blood stage assay, pfB74F6. In kind it is cell-based. The conditions noted are these: Plasmodium falciparum, read-out: IC50 (nM) Mean. How it is done: as §1, §2
For another data set, the system named is pfB64G11 (PS). Put plainly: Malaria SYBR fluorescence (MSF) blood stage assay, pfB64G11. In kind it is cell-based. As to conditions: Plasmodium falciparum, read-out: IC50 (nM) Mean. The method, then: as §1, §2
A further data set deals with Pf803. The data set is described as follows: Malaria SYBR fluorescence (MSF) blood stage assay, Pf803. In kind it is cell-based. The conditions noted are these: Plasmodium falciparum, read-out: IC50 (nM) Mean. The method, then: as §1, §2
(§3) The HME solid solutions were treated with alkaline buffer (pH 9), or with high temperature (60° C.) or with high humidity (92%) for 5 or 10 days respectively and then used for testing decoquinate inhibitory effects in in vitro blood stage experiments using freshly prepared red blood cells infected with Plasmodium Pf803 or PfB12D9. The base pH was neutralized by dialysis of decoquinate HME samples before used in cell culture experiments.

For another data set, the system named is Pf3D7. The data set is described as follows: Malaria SYBR fluorescence (MSF) blood stage assay, Pf3D7. As to conditions: Plasmodium falciparum, read-out: IC50 (nM) Mean. In kind it is cell-based. How it is done: as §1, §2
The next data set relates to pfDd2. Put plainly: Malaria SYBR fluorescence (MSF) blood stage assay, pfDd2. As to conditions: Plasmodium falciparum, read-out: IC50 (nM) Mean. The data set is classed as cell-based. How it is done: as §1, §2
Another data set has as its system pfB12D9 (PS). The data set is described as follows: Malaria SYBR fluorescence (MSF) blood stage assay, pfB12D9. In kind it is cell-based. The conditions noted are these: Plasmodium falciparum, read-out: IC50 (nM) Mean. How it is done: as §1
Table 6 is the results showing in vitro antimalarial potency of decoquinate HME formulations prepared from Example 8 (F8) and Example 15 (F15). […] Chloroquine and artemisinin were used as positive controls in the same experiments.
as §3

The subject of the next data set is pfB74C4 (PS). The data set is described as follows: Malaria SYBR fluorescence (MSF) blood stage assay, pfB74C4. The data set is classed as cell-based. The conditions noted are these: Plasmodium falciparum, read-out: IC50 (nM) Mean. How it is done: as §1, §2
Data set [1] in a line: HPLC analysis of decoquinate after HME, acid or alkaline treatment. The conditions noted are these: treated with pH 1.2 solution for 2 days. In kind it is physicochemical. The method, then: Samples are dialyzed against distilled water, diluted and analyzed with the established method. […] Differential scanning calorimetry (DSC) analysis and X-ray diffraction analysis were performed for the selected formulations in the Examples described above.

Data set [2] concerns Plasmodium berghei ANKA 868 expressing luciferase. The data set is described as follows: Inhibition of liver stage development assay (ILSDA) in HepG2 cells. In kind it is cell-based. As to conditions: HepG2, read-out: PQ Mean (IC50).
Procedure: For the inhibition of liver stage development assay (ILSDA), HepG2 liver cells were cultured with Plasmodium berghei sporozoite expressing firefly luciferase in the presence of a series of dilutions of test compound. In the case of formulations, the compound concentration was determined by the quantitation of HPLC. […] The culture was maintained in microtiter plates for 48 hours after sporozoite invasion and intracellular proliferation of P. berghei parasites in HepG2 cells. The growth inhibition of the parasites by the test compound or the compound complexed with the excipients was determined by measuring the luminescent intensity produced by the process of luciferase catalyzing the substrates which were added by the end of incubation.
The experiments were carried out on HepG2 cells incubated with the sporozoites isolated from salivary glands of infected mosquitoes. […] The results were expressed by the half maximal inhibition concentration (IC50).
Data set [3] concerns Plasmodium berghei ANKA (Pb 868 sporozoites). The data set is described as follows: Causal prophylactic efficacy against sporozoite inoculation in NIH-Swiss female mice. In kind it is in vivo. How it is done: The NIH-Swiss female mice used for the experiment were raised for at least 7 days after arrival. At the start of the experiment, the mice were 7 weeks old. Only one mouse was housed in each cage and maintained in a room with a temperature range of 18 to 26° C. with a relative humidity of 34% to 68% in a 12/12h light-dark cycle. Food and water were provided ad libitum during quarantine and throughout the study. This experiment was carried out in strict accordance with the relevant animal testing regulations (the Chinese State Council's Laboratory Animal Management Regulations, Revised Mar. 1, 2017). The decoquinate suspension used in the animal experiment was from the product of Examples 2, 8, 9, 11, 12 and 15 (F2, F8, F9, F11, F12 and F15), prepared with saline and subjected to ultrasonic treatment for 5 minutes. Each animal experiment was repeated at least three times with a group of 5 each time, so that at least 15 mice were tested in each group. The mice were inoculated with Plasmodium parasites by an injection of 50,000 sporozoites of Plasmodium berghei ANKA (Pb 868 sporozoites) through the tail vein of each mouse. Testing compound or formulation compound was administered to mice by PO (oral administration, by the manually intragastric method) the day before, the day of, and the next day after Plasmodium inoculation. The formulation compound suspended in saline were quantitated by HPLC method before dosing animals. The positive control was primaquine, an antimalarial drug used for the liver-stage Plasmodium. The vehicle control was the components used in the solid dispersion of decoquinate other than decoquinate. No anti-malarial activity was found with the vehicle control, the results of which were consistent with those obtained by using only saline as a negative control. The detection of Plasmodium parasitemia was performed as follows: a conventional method was used to count red blood cells per mm^3 of blood in that a thin film of blood was prepared and stained with 3% Giemsa for 20 minutes; and then the number of infected red blood cells per 1000 red blood cells was counted under oil microscope to obtain erythrocyte infected rate (EIR, ‰). If the parasites were not seen in the thin film, the thick film was prepared for detection of parasites and the results expressed as the parasite number per 100 white blood cells (WBC). Survival rates were calculated on day 60 post-infection for the still live mice versus the dead mice.
[…] The results shown were the number of infected mice on day 12 from the microscopic detection of parasites of thin or thick films. The results also include the protection rate on day 12 and survival rate on day 60. The products from F8, F9, F11 and F15 have 100% survival rates whereas PQ, F2 and F12 have survival rates of 80%.
Table 8 illustrates efficacy studies of the HME compositions prepared in various examples in mice infected with Plasmodium berghei expressing luciferase; wherein decoquinate given to animals at a dose of 5 mg per kg was in the saline suspension of F2, F8, F9, F11, F12, and […] HME preparations; the saline group as a negative control; PQ represents the primaquine group used as a positive control at a dose of 30 mg per kg body weight. […] Protection rates were calculated according to the data of parasitemia detection in mice on day 12 of Plasmodium sporozoite inoculation and the survival rates in each group on day 60 post the sporozoite inoculation.

[4] abbreviates: primaquine 20 mg/kg (table), intragastric, 3 daily doses, 5 mice per group.

Read-outs that look alike come from different tables or passages of the source.

As a reminder, the IC50 is the concentration needed to halve the response being measured. As for `C[C@@H]1CC[C@H]2[C@@H](C)C(=O)O[C@@H]3O[C@@]4(C)CC[C@@H]1[C@]32OO4` [Artemisinin], the IC50 was 25.4 nM in the data set with pfB47D6 (PS) (blood stage, pfB47D6, sample collected from patients); 14.5 nM in the data set with pfB74F6 (PS) (blood stage, pfB74F6, sample collected from patients); 6.66 nM with pfB64G11 (PS) (blood stage, pfB64G11, sample collected from patients); 32 nM in the data set with Pf803 (blood stage, Pf803 (chloroquine resistance), 72h); 23.1 nM in the data set with Pf3D7 (blood stage, Pf3D7, 72h); 26 nM with pfDd2 (blood stage, pfDd2 (multidrug resistance including chloroquine), 72h). Moreover, the IC50 was 24.1 nM with pfB12D9 (PS) and 26.4 nM in the data set with pfB74C4 (PS) (blood stage, pfB74C4, sample collected from patients).
Regarding `CCN(CC)CCCC(C)Nc1ccnc2cc(Cl)ccc12` (centres unmarked) [Chloroquine], the half-inhibitory concentration (IC50) with pfB47D6 (PS) stood at 78.2 nM; with pfB74F6 (PS) it was 79.2 nM; in the data set on pfB64G11 (PS) it was 30.4 nM; in the data set on Pf803 (72 h), 957 nM; in the data set with Pf3D7 (72 h) it was 57.5 nM; in the data set on pfDd2 (72 h), 244 nM. Also, the half-inhibitory concentration (IC50) in the data set with pfB12D9 (PS) came out at 63.3 nM; with pfB74C4 (PS), 59.3 nM.
`CCCCCCCCCCOc1cc2c(O)c(C(=O)OCC)cnc2cc1OCC` [Decoquinate, ethyl-6-decyloxy-7-ethoxy-4-hydroxyquinoline-3-carboxylate]: the “peak pattern and retention time of decoquinate in HPLC” value in data set [1] is “change in the peak pattern and the shift in the retention time”.
For the molecule `COc1cc(NC(C)CCCN)c2ncccc2c1` (centres unmarked) [PQ, primaquine], the 50% inhibitory concentration (IC50) in data set [2] was 1730 nM. In [3] (30 mg primaquine per kg body weight, day 60), this molecule showed a survival rate of 80%. For the same molecule, in data set [3] (setting [4]), the “Infected (Day 12)” value stood at 2, the “Protected rate (Day 12)” value stood at 60, the “Survival rate (Day 32)” value stood at 80% and the “Survived (Day 32)” value came out at 4.
